Results on 80 molecules are retold here after PMC12040169 (PLOS Biology, 2025).

One data set is described as follows: in vitro. Conditions: human, hela cells, % viability.
Take `O=C(Nc1nnc(-c2cccs2)o1)c1ccc(Cl)cc1` [CBK287600]: the viability (commonly a read-out of living cells in per cent, often relative to untreated cells) at 28.5 h, 10 µM amounted to 96.4%.

Consider `CCOC(=O)CSc1nc2ccccc2c(=O)n1Cc1ccccc1` [CBK054124], for which the viability at 28.5 h, 10 µM was determined as 95.4%.

`CC(=O)c1sc(NC(=O)c2ccc(Br)o2)nc1C` [CBK057948]: the viability at 28.5 h, 10 µM was found to be 91.6%.

For `CN(Cc1ccccc1)C(=O)c1c[nH]nc1C1CCCN(Cc2cccc(Cl)c2)C1` (centres unmarked) [CBK286490], the viability at 28.5 h, 10 µM is 91%.

As for `CCC(C)(C)c1ccc(S(=O)(=O)NCc2ccc(C(F)(F)F)cc2)cc1` [CBK044820], the viability at 28.5 h, 10 µM amounted to 107%.

For `COc1ccc2nc(C)cc(N3CCOCC3)c2c1` [CBK066896], the viability at 28.5 h, 10 µM came out at 91.2%.

Take `NC(=O)Nc1ccc2c(c1)ncn2C1CCCCC1` [CBK288176]: the viability at 28.5 h, 10 µM worked out at 95.6%.

Regarding `O=C(c1cccnc1)C1CCN(C(=O)Cc2ccccc2F)CC1` [CBK283814], the viability at 28.5 h, 10 µM worked out at 87.5%.

Consider `O=C1NC2=C(C(=O)N(CCN3CCCC3)C2)C(c2cccc(F)c2)N1` (centres unmarked) [CBK282365], for which the viability at 28.5 h, 10 µM was found to be 105%.

`CCc1ccc(-c2ccc(C(=O)OC)cn2)cc1` [CBK149232]: the viability at 28.5 h, 10 µM was determined as 95.2%.

In the case of `Cc1ccc(C(=O)Nc2cccc(-c3cn4cccnc4n3)c2)cc1` [CBK287503], the viability at 28.5 h, 10 µM was 93.8%.

For `CC(c1ccc(F)c(F)c1)N(C)C(=O)CN1CCCc2occc2C1` (centres unmarked) [CBK304456], the viability at 28.5 h, 10 µM came out at 82.9%.

In the case of `Oc1cccc2ccc(/C=C/c3ccc(-c4ccccc4Cl)o3)nc12` [CBK264445], the viability at 28.5 h, 10 µM came out at 97.7%.

Consider `COc1ccc(OCC(F)(F)F)c(C(=O)N2CCSCC2)c1` [CBK005950], for which the viability at 28.5 h, 10 µM amounted to 83.7%.

For `CC1CN(C(=O)/C=C/C(=O)O)c2ccccc2NC1=O` (centres unmarked) [CBK286618], the viability at 28.5 h, 10 µM amounted to 108%.

In the case of `COc1ccc(NC(=O)N[C@H]2CO[C@H]3[C@@H]2OC[C@@H]3n2cc(-c3ccccc3)nn2)cc1` [CBK289506], the viability at 28.5 h, 10 µM is 106%.

Take `Cc1ccc(S(=O)(=O)CC(=O)N2CCCC3(CCN(C(=O)Cc4c[nH]c5ccccc45)C3)C2)cc1` (centres unmarked) [CBK131595]: the viability at 28.5 h, 10 µM turned out to be 90.4%.

For the molecule `CSc1nc(N)nc2sc3c(O)cc(=O)[nH]c3c12` [CBK267457], the viability at 28.5 h, 10 µM worked out at 105%.

On to `C=Cn1ncc(CN2CCC(O)(c3ccccc3C)CC2)c1C` [CBK282582], for which the viability at 28.5 h, 10 µM came out at 88.6%.

As for `Cc1cccc(C(N)=O)c1O` [CBK012294], the viability at 28.5 h, 10 µM was 112%.

Turning to `NCCCNc1ccc(-c2ccco2)cn1` [CBK036911], the viability at 28.5 h, 10 µM came out at 100%.

As for `CC(C)Oc1ccc(C(=O)C2=C(O)C(=O)N(CCN(C)C)C2c2ccccc2F)cc1` (centres unmarked) [CBK264886], the viability at 28.5 h, 10 µM worked out at 102%.

As for `COc1ccc(C(=O)N(CCC(C)C)Cc2nc(C)c(C)n2Cc2ccccc2Cl)c(OC)c1` [CBK093441], the viability at 28.5 h, 10 µM came out at 86.2%.

In the case of `Fc1ccccc1CN1CCC(Oc2cncc(OCCN3CCOCC3)n2)C1` (centres unmarked) [CBK084479], the viability at 28.5 h, 10 µM came out at 94.9%.

On to `O=C(Nc1nnc(C2CCCCC2)s1)c1ccccc1I` [CBK057918], for which the viability at 28.5 h, 10 µM was determined as 114%.

On to `FC(F)(F)c1cc(-c2ccccc2)nc2onc(OCCN3CCOCC3)c12` [CBK269392], for which the viability at 28.5 h, 10 µM was determined as 90.9%.

For `Cc1ccc(C(=O)N2CCN(S(=O)(=O)c3cccc([N+](=O)[O-])c3)CC2)cc1` [CBK266259], the viability at 28.5 h, 10 µM was found to be 102%.

As to `CCNc1ncc(C(=O)NC(CCn2ccnc2)c2ccccc2)cn1` (centres unmarked) [CBK307066], the viability at 28.5 h, 10 µM stood at 110%.

Regarding `Cc1cnn(CC(=O)NC(C)c2cc3cc(Cl)ccc3o2)c1` (centres unmarked) [CBK281447], the viability at 28.5 h, 10 µM is 90.2%.

As for `Cc1ccc(NC(=O)CN(C)C)c(C)n1` [CBK200388], the viability at 28.5 h, 10 µM is 99.6%.

For `O=C(CN1CCOCC1)Nc1ccc(Cl)cc1C(=O)c1ccccc1` [CBK086450], the viability at 28.5 h, 10 µM is 95.9%.

For the molecule `N#CCCCN1CCC(Oc2nccnc2OCc2ccccc2C(F)(F)F)CC1` [CBK153636], the viability at 28.5 h, 10 µM is 102%.

In the case of `CC(C)Nc1nc2ccccc2nc1OCc1ccsc1` [CBK115660], the viability at 28.5 h, 10 µM was 104%.

In the case of `O=S(=O)(Nc1nnn[nH]1)c1ccc(Br)cc1C(F)(F)F` [CBK062388], the viability at 28.5 h, 10 µM stood at 104%.

With `COc1ccc(-c2c(-c3ccc(OCc4cnn(-c5ccccc5)c4)c(C)c3O)n[nH]c2C)cc1` [CBK265006], the viability at 28.5 h, 10 µM came to 92.5%.

For the molecule `CC1CN(C(=O)NC2CC2)C(C)CN1CCCC(c1ccc(F)cc1)c1ccc(F)cc1` (centres unmarked) [CBK024927C], the viability at 28.5 h, 10 µM stood at 104%.

As for `Cc1ccc(C)c(C(=O)C2=C(O)C(=O)N(CCCN3CCOCC3)C2c2cccc([N+](=O)[O-])c2)c1` (centres unmarked) [CBK265503], the viability at 28.5 h, 10 µM amounted to 86.2%.

For the molecule `COc1ccc(CCNc2ncnc3sc4c(c23)CCCCC4)cc1OC` [CBK074384], the viability at 28.5 h, 10 µM stood at 89.9%.

Regarding `O=C(NC(=S)Nc1ccc2c(c1)Cc1ccccc1-2)c1cc([N+](=O)[O-])ccc1N1CCOCC1` [CBK268726], the viability at 28.5 h, 10 µM was 104%.

Regarding `CC(=O)c1ccc(-c2nc(-c3ccoc3)cnc2N)cc1` [CBK064058], the viability at 28.5 h, 10 µM is 97.3%.

Regarding `Cc1ccc2[nH]c3c(c2c1)CCN(C=O)C31CCN(Cc2ccc(OC(F)F)cc2)CC1` [CBK040438], the viability at 28.5 h, 10 µM came to 101%.

`CCN1CCN(c2ccc(NC(=O)c3ccc([N+](=O)[O-])c(C)c3)cc2)CC1` [CBK266503]: the viability at 28.5 h, 10 µM came to 115%.

On to `COc1ccc([C@@]23CC[C@@H](NC(=O)Nc4cccc(-c5nn[nH]n5)c4)C[C@@H]2N(C)CC3)cc1OC` [CBK051273T], for which the viability at 28.5 h, 10 µM came out at 87.8%.

In the case of `CN(C)CCCN1C(=O)C(O)=C(C(=O)c2cccs2)C1c1cccnc1` (centres unmarked) [CBK264511], the viability at 28.5 h, 10 µM came to 88.2%.

As to `O=P(O)(CCc1ccncc1)CN1CCOCC1` [CBK262317], the viability at 28.5 h, 10 µM was determined as 89.3%.

Regarding `CCN(Cc1ccccc1)C(=O)NCCc1c[nH]c2ccc(OC)cc12` [CBK155226], the viability at 28.5 h, 10 µM worked out at 87%.

As to `C[C@@H]1[C@H]2C[C@@H](C[C@H]1NC1=NC(=O)C(CC(=O)O)S1)C2(C)C` (some centres unmarked) [CBK059514], the viability at 28.5 h, 10 µM came out at 93.8%.

Consider `CC(=O)Nc1ccc(S(=O)(=O)c2cc(O)ccc2O)cc1` [CBK261372], for which the viability at 28.5 h, 10 µM amounted to 85.9%.

For the molecule `NS(=O)(=O)c1ccc(NC(=O)CCC(=O)O)cc1` [CBK261350], the viability at 28.5 h, 10 µM amounted to 86.9%.

Consider `Cn1cnc2c(ncn2C2OC(CO)C(O)C2O)c1=N` (centres unmarked) [CBK201313], for which the viability at 28.5 h, 10 µM was 102%.

Turning to `Cc1occc1-c1nnc(SCC(=O)c2ccc3c(c2)OCCO3)o1` [CBK268773], the viability at 28.5 h, 10 µM was 83.5%.

As to `O=C(Nc1ccncc1)c1cc(-c2ccncc2)nc2ccccc12` [CBK287787], the viability at 28.5 h, 10 µM came to 100%.

As to `CC(=O)Nc1ccc(CCOc2nccnc2-c2ccccc2)cc1` [CBK106683], the viability at 28.5 h, 10 µM worked out at 96.3%.

For the molecule `COc1ccccc1OCCOc1ccc(/C=N/n2cnnc2)cc1` [CBK263295], the viability at 28.5 h, 10 µM came out at 106%.

Regarding `O=c1ccc(-c2ccc(F)cc2)nn1CC1CCNCC1` [CBK284216], the viability at 28.5 h, 10 µM is 86.5%.

Consider `Nc1nnc(SCC(=O)NC23CC4CC(CC(C4)C2)C3)s1` [CBK267417], for which the viability at 28.5 h, 10 µM is 97.1%.

In the case of `Cc1ccc(CNC(=O)c2ccc3c(c2)nc(N2CC[C@H](O)C2)n3C)s1` [CBK306837], the viability at 28.5 h, 10 µM worked out at 90.9%.

On to `COC(=O)c1sccc1NC(=O)c1ccncc1` [CBK265438], for which the viability at 28.5 h, 10 µM amounted to 85.4%.

For `Cc1ccc(Nc2nc(N/N=C/c3cccc4ccccc34)nc(N3CCC(Cc4ccccc4)CC3)n2)cc1` [CBK262101], the viability at 28.5 h, 10 µM was 94.7%.

With `CCN1CC(C(=O)N2CCN(C)CC2c2ccccc2)CC1=O` (centres unmarked) [CBK282026], the viability at 28.5 h, 10 µM was found to be 92.2%.

`COc1cccc(C(=O)N2CCN(C(=O)Nc3ccccc3Br)CC2)c1` [CBK154783]: the viability at 28.5 h, 10 µM came out at 94.4%.

In the case of `CC(C)OC(=O)Cc1nc(CN2CCOC(c3ccc(F)cc3)C2)cs1` (centres unmarked) [CBK305439], the viability at 28.5 h, 10 µM amounted to 119%.

As for `Cc1nnc(SCC(=O)N/N=C/c2ccncc2)n1-c1ccccc1` [CBK262762], the viability at 28.5 h, 10 µM came to 85.4%.

Turning to `CC(Cc1cccs1)NC(=O)c1cccc(-n2cnnc2)c1` (centres unmarked) [CBK282443], the viability at 28.5 h, 10 µM turned out to be 102%.

Turning to `C[C@@H](c1ccccc1)n1c(=O)[nH]c2ncc(-c3cncc4ccccc34)nc21` [CBK064726], the viability at 28.5 h, 10 µM was found to be 73.9%.

Take `Cc1ccc(S(=O)(=O)NCCSc2ccccn2)cc1[N+](=O)[O-]` [CBK263566]: the viability at 28.5 h, 10 µM was 82.5%.

Consider `COCCCOc1nc2ccccc2nc1NC(C)C` [CBK115737], for which the viability at 28.5 h, 10 µM stood at 99.3%.

Turning to `CN(Cc1nc(-c2ccccc2)no1)C(=O)COCC1CCCCO1` (centres unmarked) [CBK307643], the viability at 28.5 h, 10 µM came to 106%.

`O=C(Cn1nc(-c2cc3c(s2)CCC3)oc1=O)N1CCCC1` [CBK284712]: the viability at 28.5 h, 10 µM is 90.3%.

On to `CC(Sc1nc2ccc(Cl)cc2o1)C(=O)N1CCOCC1` (centres unmarked) [CBK305164], for which the viability at 28.5 h, 10 µM amounted to 92.1%.

For the molecule `COc1ccc(S(=O)(=O)N2CCC3(CC2)CC(=O)c2ccc(C)cc2O3)cc1OC` [CBK166515], the viability at 28.5 h, 10 µM worked out at 96.8%.

In the case of `CCn1c(SCC(=O)NC(=O)NC2CCCCC2)nc2ccccc21` [CBK306037], the viability at 28.5 h, 10 µM is 93.6%.

As for `CCOc1cc(/C=C2\SC(=S)N(Cc3ccccc3)C2=O)cc(Cl)c1OC(=O)c1ccco1` [CBK265509], the viability at 28.5 h, 10 µM was determined as 106%.

On to `COc1ccc(S(=O)(=O)N2CCSC2)cc1C` [CBK097882], for which the viability at 28.5 h, 10 µM was 106%.

Turning to `C=CCNc1nccnc1-c1ccc(O)cc1` [CBK036898], the viability at 28.5 h, 10 µM came out at 99.6%.

Take `c1ccc(-c2nc(-c3ccncc3)[nH]c2-c2ccccc2)cc1` [CBK291155]: the viability at 28.5 h, 10 µM stood at 85.3%.

As for `O=C(C1CCCN(S(=O)(=O)c2ccc(F)cc2)C1)N(Cc1ccccc1)Cc1ccccc1` (centres unmarked) [CBK267652], the viability at 28.5 h, 10 µM was determined as 108%.

For `O=C(c1ccc2ncccc2c1)N1CCc2ccccc21` [CBK200403], the viability at 28.5 h, 10 µM turned out to be 81.8%.

The same data set, now with this note: human, hela cells, % viability, bulk resorufin, single well.
`O=C(c1ccoc1)N1CCC2(CC1)OCc1ccccc1O2` [CBK061234]: the viability at 28.5 h, 10 µM is 94.7%.

For the molecule `CCOC(=O)N1CCC2(CC1)Oc1ccc(Br)cc1O2` [CBK089365], the viability at 28.5 h, 10 µM was 80.9%.
